Measurements as given in publication PMC6214572, “Carboxypeptidase O is a lipid droplet-associated enzyme able to cleave both acidic and polar C-terminal amino acids” (PLoS ONE, 2018).

Target: T1, Carboxypeptidase O (CPO) (Homo sapiens, UniProt Q8IVL8, W297L)
T1 construct: full-length GPI-anchored enzyme without prodomain, (plasmid pcDNA-CPO in HEK293T); Triton X-100 cell lysate
T1 sequence (Q8IVL8 21-352 W297L): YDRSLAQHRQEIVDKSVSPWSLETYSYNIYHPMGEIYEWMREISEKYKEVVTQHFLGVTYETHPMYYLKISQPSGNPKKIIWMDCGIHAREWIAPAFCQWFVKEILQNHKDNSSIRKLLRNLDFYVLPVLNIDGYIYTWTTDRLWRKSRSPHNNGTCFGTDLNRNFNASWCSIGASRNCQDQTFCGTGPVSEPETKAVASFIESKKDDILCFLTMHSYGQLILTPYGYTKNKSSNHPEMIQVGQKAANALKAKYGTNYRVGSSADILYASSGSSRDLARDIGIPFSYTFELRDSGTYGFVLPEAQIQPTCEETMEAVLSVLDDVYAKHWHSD
Test: absorbance decrease at […] nm after […] min
Type: biochemical
Conditions: lysate of transfected HEK293T cells; 0.5 mM FA-EE, 37°C; inactive mutant

For `O=C(O)CC[C@H](NC(=O)[C@H](CCC(=O)O)NC(=O)C=Cc1ccco1)C(=O)O` [FA-Glu-Glu], the no enzymatic activity was “The W297L CPO mutant exhibits no enzymatic activity, although fully expressed”.
